According to patent publication US11827639B2, “TDO2 and IDO1 inhibitors” (Genentech, Inc., priority 2017, dated 2023):
Read-outs that look alike come from different tables or passages of the source.

Key:
TDO2 [1] = target: T1, TDO2 (Homo sapiens, UniProt P48775); test: TDO2 cell assay (NFK GreenScreen) in SW48 cells; conditions: read-out: TDO2 cell Fluor EC50, NFK GreenScreen fluorescence
IDO1 [2] = target: T2, IDO1 (Homo sapiens, UniProt P14902)
TDO2 [3] = target: T1, TDO2; test: cell-based
IDO1 [4] = target: T2, IDO1; test: cell-based

T2 sequence (P14902 whole entry): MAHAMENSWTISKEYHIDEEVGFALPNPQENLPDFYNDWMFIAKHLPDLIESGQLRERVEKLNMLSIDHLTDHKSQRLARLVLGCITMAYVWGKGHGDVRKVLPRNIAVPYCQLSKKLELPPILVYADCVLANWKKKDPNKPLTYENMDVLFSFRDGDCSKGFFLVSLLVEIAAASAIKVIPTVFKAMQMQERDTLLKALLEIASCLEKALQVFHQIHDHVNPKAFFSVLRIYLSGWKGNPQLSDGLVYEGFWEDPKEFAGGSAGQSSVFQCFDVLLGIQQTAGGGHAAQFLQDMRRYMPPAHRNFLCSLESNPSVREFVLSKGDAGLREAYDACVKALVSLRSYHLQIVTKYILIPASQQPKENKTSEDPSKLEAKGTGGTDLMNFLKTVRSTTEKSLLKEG
T1 sequence (P48775 whole entry): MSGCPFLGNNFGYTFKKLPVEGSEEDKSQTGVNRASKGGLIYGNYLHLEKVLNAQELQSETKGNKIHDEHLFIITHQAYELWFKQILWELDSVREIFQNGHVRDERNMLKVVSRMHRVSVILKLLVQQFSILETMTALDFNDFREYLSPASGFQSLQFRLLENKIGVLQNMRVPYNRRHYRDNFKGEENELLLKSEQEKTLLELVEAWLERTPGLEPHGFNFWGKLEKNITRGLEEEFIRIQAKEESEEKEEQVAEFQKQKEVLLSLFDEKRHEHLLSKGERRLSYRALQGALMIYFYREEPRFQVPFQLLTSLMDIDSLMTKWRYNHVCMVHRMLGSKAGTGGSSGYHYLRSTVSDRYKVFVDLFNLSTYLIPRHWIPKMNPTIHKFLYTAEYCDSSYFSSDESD

Row | Structure (SMILES) | EC50 (TDO2 [1]) [nM] | EC50 (IDO1 [2]) [nM] | EC50 (TDO2 [3]) [nM] | EC50 (IDO1 [4]) [µM]
1 | c1ccc2c(c1)-c1cncn1[C@H]2C1CCCCC1 [Example 19b] | 33 | 416 | – | –
2 | CC(C)(C)OC(=O)N1CCC2(CC1)CC(C1c3ccccc3-c3cncn31)C2 (centres unmarked) [Example 57, tert-butyl 2-(5H-imidazo[5,1-a]isoindol-5-yl)-7-azaspiro[3.5]nonane-7-carboxylate] | – | – | 1500 | 0.91
3 | NS(=O)(=O)N1CC2(CC(C3c4ccccc4-c4cncn43)C2)C1 (centres unmarked) [Example 66, 6-(5H-imidazo[5,1-a]isoindol-5-yl)-2-azaspiro[3.3]heptane-2-sulfonamide] | – | – | 1100 | 20
4 | CS(=O)(=O)N1CCCC(C2c3ccccc3-c3cncn32)C1 (centres unmarked) [Example 71, 5-(1-(methylsulfonyl)piperidin-3-yl)-5H-imidazo[5,1-a]isoindole] | – | – | 560 | 14
5 | CS(=O)(=O)N1CC2CC(C3c4ccccc4-c4cncn43)CC2C1 (centres unmarked) [Example 75a, 5-(2-(methylsulfonyl)octahydrocyclopenta[c]pyrrol-5-yl)-5H-imidazo[5,1-a]isoindole] | – | – | 2100 | 7.6
6 | CC(C)(C)OC(=O)N1CC2(CCC(C3c4ccccc4-c4cncn43)CC2)C1 (centres unmarked) [Example 76, tert-butyl 7-(5H-imidazo[5,1-a]isoindol-5-yl)-2-azaspiro[3.5]nonane-2-carboxylate] | – | – | 1800 | 0.14
7 | O=S(=O)(N1CCC1)N1CCC(C2c3ccc(F)cc3-c3cncn32)CC1 (centres unmarked) [Example 88, 5-(1-(azetidin-1-ylsulfonyl)piperidin-4-yl)-8-fluoro-5H-imidazo[5,1-a]isoindole] | – | – | 900 | 5.3
8 | CS(=O)(=O)N1CC2C(C1)C2C1c2ccccc2-c2cncn21 (centres unmarked) [Example 93, 5-(3-(methylsulfonyl)-3-azabicyclo[3.1.0]hexan-6-yl)-5H-imidazo[5,1-a]isoindole] | – | – | 770 | 8.6
9 | O=S1(=O)NCC2CC(C3c4ccccc4-c4cncn43)CCN21 (centres unmarked) [Example 94, 5-(5H-imidazo[5,1-a]isoindol-5-yl)hexahydro-2H-[1,2,5]thiadiazolo[2,3-a]pyridine 1,1-dioxide] | – | – | 420 | 7.1

Continued by falling EC50 (TDO2 [3]), values first:

Row | EC50 (TDO2 [1]) [nM] | EC50 (IDO1 [2]) [nM] | EC50 (TDO2 [3]) [nM] | EC50 (IDO1 [4]) [µM] | Structure (SMILES)
10 | – | – | 410 | 4.4 | NS(=O)(=O)N1CCCC(C2c3ccccc3-c3cncn32)C1 (centres unmarked) [Example 64, 3-(5H-imidazo[5,1-a]isoindol-5-yl)piperidine-1-sulfonamide]
11 | – | – | 390 | 9 | NS(=O)(=O)N1CC2C(C1)C2C1c2ccccc2-c2cncn21 (centres unmarked) [Example 96, 6-(5H-imidazo[5,1-a]isoindol-5-yl)-3-azabicyclo[3.1.0]hexane-3-sulfonamide]
12 | – | – | 240 | 1.5 | CS(=O)(=O)N1CCC2(CC1)CC(C1c3ccccc3-c3cncn31)C2 (centres unmarked) [Example 59, 5-(7-(methylsulfonyl)-7-azaspiro[3.5]nonan-2-yl)-5H-imidazo[5,1-a]isoindole]
13 | – | – | 220 | 5.9 | O=S(=O)(NC1CC1)N1CCC(C2c3ccc(F)cc3-c3cncn32)CC1 (centres unmarked) [Example 89, N-cyclopropyl-4-(8-fluoro-5H-imidazo[5,1-a]isoindol-5-yl)piperidine-1-sulfonamide]
14 | – | – | 210 | 1.9 | Fc1cc(C2c3ccccc3-c3cncn32)cc(F)c1F (centres unmarked) [Example 65, 5-(3,4,5-trifluorophenyl)-5H-imidazo[5,1-a]isoindole]
15 | – | – | 210 | 0.9 | CC1(C)CC(C2c3ccccc3-c3cncn32)C1 (centres unmarked) [Example 67, 5-(3,3-dimethylcyclobutyl)-5H-imidazo[5,1-a]isoindole]
16 | – | – | 180 | 0.86 | CC1(O)CCC(C2c3ccccc3-c3cncn32)CC1 (centres unmarked) [Example 70, 4-(5H-imidazo[5,1-a]isoindol-5-yl)-1-methylcyclohexan-1-ol]
